In ChEMBL document CHEMBL3286168, “Synthesis of 2'-O,4'-C-alkylene-bridged ribonucleosides and their evaluation as inhibitors of HCV NS5B polymerase” (Bioorg Med Chem Lett, 2014):

Key:
[1] = Inhibition of purified wild type Hepatitis C virus 1b NS5B polymerase; set-up: species or system Hepatitis C virus subtype 1b
[2] = target: RNA-directed RNA polymerase (Hepacivirus hominis, UniProt O39930, S282T); assay: Inhibition of purified Hepatitis C virus NS5B polymerase S282T mutant; set-up: species or system Hepatitis C virus subtype 1b
[3] = Cytotoxicity against human HuH7 cells up to 100 uM after 3 hrs by CellTiter-Blue cell viability assay; format: cell-based; details: huh-7, 3 h
Hepatitis C virus = assay: Antiviral activity against wild type Hepatitis C virus genotype 1b infected in human HuH7 cells after 72 hrs by luciferase reporter gene assay; format: functional, cell-based, Hepacivirus hominis; details: Huh-7, 72 h
[4] = Inhibition of purified wild type Hepatitis C virus 2a NS5B polymerase; set-up: species or system Hepatitis C virus subtype 2a
[5] = Inhibition of purified wild type Hepatitis C virus 3a NS5B polymerase; set-up: species or system Hepatitis C virus subtype 3a
[6] = Inhibition of purified wild type Hepatitis C virus 1a NS5B polymerase; set-up: species or system Hepatitis C virus subtype 1a
[7] = Inhibition of purified wild type Hepatitis C virus 4a NS5B polymerase; set-up: species or system Hepatitis C virus subtype 4a
[8] = test system: Hepatitis C virus subtype 1b; assay: Selectivity ratio of IC50 for Hepatitis C virus NS5B polymerase S282T mutant to wild type Hepatitis C virus 1b NS5B polymerase

Sequence of RNA-directed RNA polymerase (O39930 entry or part of it S282T): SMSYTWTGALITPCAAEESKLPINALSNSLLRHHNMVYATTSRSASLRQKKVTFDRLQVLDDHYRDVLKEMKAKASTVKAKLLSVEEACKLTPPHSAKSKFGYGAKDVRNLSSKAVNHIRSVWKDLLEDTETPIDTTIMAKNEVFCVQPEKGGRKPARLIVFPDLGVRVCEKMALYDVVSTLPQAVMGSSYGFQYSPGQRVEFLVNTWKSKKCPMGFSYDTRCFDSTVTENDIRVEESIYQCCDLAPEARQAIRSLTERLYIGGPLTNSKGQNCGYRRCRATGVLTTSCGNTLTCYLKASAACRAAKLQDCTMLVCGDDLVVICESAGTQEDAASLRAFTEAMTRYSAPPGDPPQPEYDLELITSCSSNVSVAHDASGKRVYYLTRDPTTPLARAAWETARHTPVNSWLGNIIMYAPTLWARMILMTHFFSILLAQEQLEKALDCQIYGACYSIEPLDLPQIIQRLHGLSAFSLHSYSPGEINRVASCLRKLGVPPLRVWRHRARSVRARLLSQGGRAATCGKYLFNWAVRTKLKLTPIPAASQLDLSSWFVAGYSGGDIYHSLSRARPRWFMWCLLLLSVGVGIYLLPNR

| EC50 (Hepatitis C virus) | SMILES | IC50 [1] | IC50 [2] | Activity [3] | further results |
| --- | --- | --- | --- | --- | --- |
|  | O=c1ccn([C@@H]2O[C@@]3(COP(=O)(O)OP(=O)(O)OP(=O)(O)O)CO[C@@H]2[C@@H]3O)c(=O)[nH]1 | 3.84 µM | 12.8 µM |  |  |
| > 50 µM | O=c1ccn([C@@H]2O[C@@]3(CO)CO[C@@H]2[C@@H]3O)c(=O)[nH]1 |  |  | Non-toxic |  |
|  | Nc1nc2c(ncn2[C@@H]2O[C@@]3(COP(=O)(O)OP(=O)(O)OP(=O)(O)O)CO[C@@H]2[C@@H]3O)c(=O)[nH]1 | 0.39 µM | 0.38 µM |  | IC50 [4]: 0.29 µM; IC50 [5]: 0.2 µM; IC50 [6]: 0.37 µM; IC50 [7]: 0.31 µM |
|  | Nc1ccn([C@@H]2O[C@@]3(COP(=O)(O)OP(=O)(O)OP(=O)(O)O)CO[C@@H]2[C@@H]3O)c(=O)n1 | 1.39 µM | 1.44 µM |  |  |
| > 50 µM | Nc1ncnc2c1ncn2[C@@H]1O[C@@]2(CO)CO[C@@H]1[C@@H]2O |  |  | Non-toxic |  |
| > 50 µM | CC(O)[C@@]12CO[C@@H]([C@H](n3cnc4c(=O)[nH]c(N)nc43)O1)[C@@H]2O (mixture of isomers) |  |  | Non-toxic |  |
| > 50 µM | C[C@]12OC[C@](CO)(O[C@H]1n1cnc3c(=O)[nH]c(N)nc31)[C@H]2O |  |  | Non-toxic |  |
|  | CC(OP(=O)(O)OP(=O)(O)OP(=O)(O)O)[C@@]12CO[C@@H]([C@H](n3cnc4c(=O)[nH]c(N)nc43)O1)[C@@H]2O (stereo in doubt; form 2) | > 100 µM | > 100 µM |  |  |
| > 50 µM | Nc1ccn([C@@H]2O[C@@]3(CO)CO[C@@H]2[C@@H]3O)c(=O)n1 |  |  | Non-toxic |  |
|  | Nc1nc2c(ncn2[C@@H]2O[C@@]3(COP(=O)(O)OP(=O)(O)OP(=O)(O)O)CCO[C@@H]2[C@@H]3O)c(=O)[nH]1 | > 100 µM | > 100 µM |  |  |
| > 50 µM | Nc1nc2c(ncn2[C@@H]2O[C@@]3(CO)CCO[C@@H]2[C@@H]3O)c(=O)[nH]1 |  |  | Non-toxic |  |
|  | C[C@]12OC[C@](COP(=O)(O)OP(=O)(O)OP(=O)(O)O)(O[C@H]1n1cnc3c(=O)[nH]c(N)nc31)[C@H]2O | 0.2 µM | 0.48 µM |  | Ratio IC50 [8]: 2 |
|  | CC(OP(=O)(O)OP(=O)(O)OP(=O)(O)O)[C@@]12CO[C@@H]([C@H](n3cnc4c(=O)[nH]c(N)nc43)O1)[C@@H]2O (stereo in doubt; form 1) | 15.9 µM | 25.1 µM |  |  |
| > 50 µM | Nc1nc2c(ncn2[C@@H]2O[C@@]3(CO)CO[C@@H]2[C@@H]3O)c(=O)[nH]1 |  |  | Non-toxic |  |
|  | Nc1ncnc2c1ncn2[C@@H]1O[C@@]2(COP(=O)(O)OP(=O)(O)OP(=O)(O)O)CO[C@@H]1[C@@H]2O | 39.8 µM | 86.3 µM |  |  |
